According to US20250340837A1, “CELLS” (University of Geneva, priority 2022, published 2025):

Test system: C57Bl/6 otic progenitors
Assay: Stemness reprogramming and regeneration in hair cell progenitors
Type: cell-based, mouse
Settings: 30 days, with CHIR99021 3 μM
Protocol: C57Bl/6 otic progenitors were plated at 10,000 cells/well of a 96 well plate and treated with WNT agonist (CHIR99021; 3 μM) and the above mentioned compounds for 30 days. (A) Graph representing the average growth (% otic progenitors cultured in presence of GF+CHIR) after 30 days. […] Data represent the average±SEM of three independent experiments.
For reprogramming stemness of auditory hair cells, C57Bl/6 otic progenitors were plated at 10,000 cells/well of a 96 well plate and treated with WNT agonist (CHIR99021; 3 μM) and the above mentioned compounds for 30 days.

COc1cc(-c2cc(-c3ccc(N4CCNCC4)cc3)cnc2C)cc(OC)c1OC [compound 51, LDN-214117]
stemness reprogramming, average growth (% otic progenitors cultured in presence of GF+CHIR): particularly good candidates
